The text below walks through data of US10875861B1, “Therapeutic compounds” (Rutgers, The State University of New Jersey, priority 2017, dated 2020).

In one data set the test system is BMI-1 protein. Description: Inhibition of BMI-1 protein levels in U87 cells (Western blotting). The settings on record: read-out: IC50, inhibition of BMI-1 protein levels, U87 glioblastoma cell lysate, 72 hours. Type of data set: cell-based. How it is done:
U87 cells were treated with DMSO or different concentrations of compound B1 for 72 hours. Cells were lysed in Cell Lysis Buffer (Cell Signaling, #9803) supplemented with Protease Inhibitor Cocktail (Sigma, #P8340), sonicated briefly while on ice and spun down for 30 minutes at 4° C., after which the supernatant was collected. For each sample, 2 uL of lysate was mixed well into 198 uL de-ionized water. Next, 10 uL of this diluted sample was added to a well in a 96 well plate in quadruplets and mixed with Protein Assay Dye Reagent Concentrate (Bio-Rad, #500-0006) (which was diluted 1:5 with water). BSA standards of 25 ng, 50 ng, 100 ng, 200 ng and 250 ng were also used to the plate and mixed with the reagent. The plate was read in a plate reader at 600 nm and samples were calibrated to the standards to determine the concentration of protein. Using the NuPAGE system (Invitrogen), 25 ug of protein was mixed with NuPAGE LDS 4× Sample Buffer (#NP0007), NuPAGE 10× Reducing Agent (#NP0004) and water, mixed well and heated at 96° C. for 15 minutes to denature the protein. […] Protein signals were detected using ECL Western Blotting Substrate (Pierce, #32106) and filmed.
U87 cells were treated with DMSO or different concentrations of the inhibitors for 72 hours. […] The plate was read in a plate reader at 600 nm and samples were calibrated to the standards to determine the concentration of protein. […]
(In general: Immunoblotting shows a protein as a band on a membrane.)

The subject of another data set is U87 glioblastoma cells. Description: Comparison of Example 3 and PTC-209 in U87 glioblastoma cells (cell viability). Type of data set: cell-based. An excerpt: (§1) BMI-1 inhibitors were developed by the Molecular Design and Synthesis laboratory, Rutgers Translational Sciences at Rutgers University, NJ, USA. […] (Generic name is PTC-209) was characterized among a screen for post-transcriptional inhibitors of BMI-1. Zebrafish embryo toxicology assays were used to select RU-A compounds with no embryonic toxicity in vivo (a surrogate assay for toxic effects on normal stem cells). […] Cells were counted using Beckman Coulter Vi-CELL Cell Viability Analyzer, and cell viability was confirmed by CellTiter-Glo Luminescent Cell Viability Assay (Promega, Madison, Wis., USA) according to standard protocols and analyzed with a Victor 2 plate reader (Wallac, Turku, Finland).

In data set [1] the test system is BMI-1 and ubiquitinated histone H2A in primary glioblastoma cells. Put plainly: Modulation / dynamics of BMI-1 and downstream targets in GBM cells (Western blotting). It is filed as cell-based, human. The method, then: Different GBM cells were treated with DMSO or different concentrations of the B compounds for 72 hours. Cells were lysed in Cell Lysis Buffer (Cell Signaling, #9803) supplemented with Protease Inhibitor Cocktail (Sigma, #P8340), spun down for 30 minutes at 4° C., after which the supernatant was collected at every time point indicated. Western blotting analysis was performed on all samples as described above. BMI-1 loss started at 6-12 h, coinciding with an upper shift and hyper-phosphorylation of BMI-1 at 12-24 h and complete depletion at 72 h.
To study the compound dynamic activity against GBM spheres, GBMs were tested with exemplary compounds. Different GBM cells were treated with DMSO or different concentrations of the inhibitors for 72 hours. Cells were lysed in Cell Lysis Buffer (Cell Signaling, #9803) supplemented with Protease Inhibitor Cocktail (Sigma, #P8340), spun down for 30 minutes at 4° C., after which the supernatant was collected at every time point indicated. Western blotting analysis was performed on all samples as described above. […] BMI-1 loss started at 6-12 h, coinciding with an upper shift and hyper-phosphorylation of BMI-1 at 12-24 h and complete depletion at 72 h. […] This is expected since BMI-1 is known to suppress p21. BMI-1 inhibition could be reversed using phosphatase treatment, moreover, when proteasomal inhibitor is added to treated cells after 24 h, BMI-1 is locked in the phosphorylated state, therefore showing that the phosphorylation event precedes BMI-1 degradation. The phosphorylation was independent of p38 kinase activation, as when we added […], the p38 inhibitor to the cultured cells upon treatment with the BMI-1 inhibitor, the combined treatment could not reverse the effects of RU-A15 on BMI-1 inhibition.

The test system of another data set is BMI-1 5'UTR. Put plainly: Luciferase plasmid containing the BMI-1 5'UTR with or without binding pocket. Type of data set: cell-based. How it is done:
Since translation initiation is dependent on RNA folding, the 3D folding of the BMI-1 5′UTR was examined. To identify sequences that fold into a target minimum and maximum free energy (MFE) secondary structure, inverse RNA folding of the BMI-1 5′UTR was performed using the mFold server. A highly probable, probability annotated group of secondary structures were identified, starting with the MFE, centroid energy structures and including fourteen other probabilities. […] In a luciferase plasmid containing the BMI-1 5′UTR, the sequences of the pocket region that contains the potential binding site was removed by cutting with compatible restriction enzymes and re-ligating the plasmid. The luciferase activity was examined with the luc plasmids or without the binding pocket upon treatment with the inhibitors. […] Thus, RU-A15/A16 engages with the BMI-1 UTR regulatory mechanisms.

For the next data set, the system named is BMI-1 and αENaC mRNA. Description: mRNA expression of BMI-1 and αENaC on concomitant treatment with cyclohexamide. Type of data set: cell-based. The settings on record: RU-A15 100 nM, RU-A16 200 nM, concomitant with CHX. How it is done: Next, to test if Examples 3 and 4 are selective for BMI-1 RNA, cells were concomitantly treated with RU-A15/16 (100 nM, 200 nM, respectively) and cyclohexamide (CHX), a general translational inhibitor, and analyzed mRNA expression of BMI-1 and the CHX-specific target epithelial sodium channel (αENaC).

The next data set deals with normal astrocytes. Description: Effects on normal astrocytes. It is filed as cell-based.
From the text: as §1

A further data set concerns Zebrafish embryo. Description: Zebrafish embryo toxicology assay. Type of data set: in vivo.
From the text: as §1

The test system of data set [2] is glioblastoma cancer stem cells. Description: Sphere selectivity ratio EC50(U87)/EC50(spheres). The settings on record: ratio greater than controls (DMSO and Temozolomide). It is filed as cell-based, human. How it is done:
The selectivity and potency in U87 cells were assessed vs primary GBM. Dose-response curves were generated in both spheres and monocultures and used to determine a sphere selectivity ratio (targeting Glioblastoma Initiating Cells), defined as EC50(U87)/EC50(spheres), for each compound.

Setting [3] is: primary glioblastoma cells, Western blotting.

Counter-ions that a name gives are not always drawn.

As usually defined, the IC50 is the point on the concentration scale where inhibition reaches its midpoint. Take `COc1ccc(Nc2nc(-c3c(C)nc4ccccn34)cs2)cc1` [Example 3, N-(4-methoxyphenyl)-4-(2-methylimidaz[1,2-a]pyridin-3-yl)thiazol-2-aminehydrobromide]: the half-inhibitory concentration (IC50) in the data set with BMI-1 protein stood at 10 nM. In the data set on U87 glioblastoma cells, the “potency relative to PTC-209” value is “one thousand-fold more potent than PTC-209”. In the data set on U87 glioblastoma cells (Homo sapiens, U-87 MG, 72 hours), this compound came in with an IC50 of 10 nM. Besides, the “CDK inhibitor p21” value in data set [1] (GBM#46 and #50) is “induced upregulation of the CDK inhibitor p21”. The “lowest concentration giving dose-dependent loss of BMI-1 protein expression” value in data set [1] (GBM#50, 72 h) came out at 25 nM. In data set [1] (setting [3]), the BMI-1 protein levels result is “inhibit BMI-1”, the “WT p53 levels” value is listed as “increase WT p53 levels” and the “ubiquitin H2A” value was “inhibit ubiquitin H2A”. Also, the “normalized luc, BMI-1 5'UTR with intact binding pocket” value in the data set on BMI-1 5'UTR (intact minor groove potential binding pocket) is on record as “significantly reduced normalized luc”. In the data set with BMI-1 5'UTR (pocket sequences removed), the “normalized luc, binding pocket sequences removed” value is on record as “not when the pocket sequences were removed”. For the same compound, in the data set with BMI-1 and αENaC mRNA, the “BMI-1 mRNA expression” value is “did not inhibit” and the “αENaC mRNA expression” value is reported as “did not inhibit”. Moreover, the “effects on normal astrocytes” value in the data set with normal astrocytes was “no significant effects”. The “effects in embryo assays” value in the data set on Zebrafish embryo is “no significant effects”. In addition, the “selectivity for glioblastoma cancer stem cells (sphere selectivity ratio)” value in data set [2] is given as “high selectivity for glioblastoma cancer stem cells”.
